Assay results published in PubChem BioAssay (NCI).
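Five compound concentrations were applied to cells in 96-well plates for 48 hours; endpoints were derived by simple linear interpolation of the resulting dose-response curve. GI50 is the concentration that inhibits growth by half. TGI: concentration producing complete growth inhibition.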

Legend:
Assay in all cases: NCI anticancer screen, dose series, 48 h
UACC-257 melanoma = test system: UACC-257 melanoma
CCRF-CEM leukemia = test system: CCRF-CEM leukemia
SNB-75 CNS = test system: SNB-75 CNS
CAKI-1 renal = test system: CAKI-1 renal
SK-OV-3 ovarian = test system: SK-OV-3 ovarian
MOLT-4 leukemia = test system: MOLT-4 leukemia
MDA-N = test system: MDA-N
A498 renal = test system: A498 renal
HS 578T breast = test system: HS 578T breast
SK-MEL-2 melanoma = test system: SK-MEL-2 melanoma

Compound	TGI (UACC-257 melanoma)	TGI (CCRF-CEM leukemia)	TGI (SNB-75 CNS)	TGI (CAKI-1 renal)	TGI (SK-OV-3 ovarian)	TGI (MOLT-4 leukemia)	TGI (MDA-N)	TGI (A498 renal)	TGI (HS 578T breast)	TGI (SK-MEL-2 melanoma)	GI50 (UACC-257 melanoma)	GI50 (CCRF-CEM leukemia)	GI50 (SNB-75 CNS)	GI50 (CAKI-1 renal)	GI50 (SK-OV-3 ovarian)	GI50 (MOLT-4 leukemia)	GI50 (A498 renal)	GI50 (HS 578T breast)	GI50 (SK-MEL-2 melanoma)
O=C(OCC(Cl)(Cl)Cl)O[C@@H]1CCCC1(c1ccccc1)c1ccccc1	> 100 µM	> 100 µM	> 100 µM	> 100 µM	> 100 µM	34.1 µM	> 100 µM	–	–	–	–	–	–	–	–	–	–	–	–
CCc1nc2ccc(NCCN(C)C)c3c(=O)c4ccccc4n1c23	11.8 µM	15.1 µM	11.9 µM	7.89 µM	13.3 µM	6.28 µM	–	11 µM	5.94 µM	6.98 µM	–	–	–	–	–	–	–	–	–
C[C@H](C/C=C/C(C)(C)O)[C@H]1CC[C@@]2(C)[C@@H]3CC[C@H]4C(C)(C)[C@@H](O)CC[C@@]45C[C@@]35CC[C@]12C	33.2 µM	–	52.5 µM	–	> 100 µM	32.8 µM	> 100 µM	40.8 µM	27.8 µM	37.7 µM	–	–	–	–	–	–	–	–	–
COc1ccc(-n2sc3ncccc3c2=O)cc1	34.2 µM	> 100 µM	51 µM	–	> 100 µM	> 100 µM	40.7 µM	–	62.8 µM	> 100 µM	–	–	–	–	–	–	–	–	–
CCOC(=O)N(c1ccccc1)N(CC)C(=O)/C(C)=N/Nc1ccc([N+](=O)[O-])cc1	29.3 µM	42 µM	35.2 µM	–	37.1 µM	52.6 µM	–	28 µM	–	30 µM	–	–	–	–	–	–	–	–	–
Cc1nc2c(=S)n(C)ncc2[nH]1	> 100 µM	> 100 µM	> 100 µM	> 100 µM	> 100 µM	> 100 µM	> 100 µM	> 100 µM	–	> 100 µM	–	–	–	–	–	–	–	–	–
COc1ccc(C(OCC2OC(n3ccc(NC(=O)c4ccccc4)nc3=O)CC2OP2(=S)SCCS2)(c2ccccc2)c2ccc(OC)cc2)cc1 (stereo unspecified)	> 100 µM	–	46.6 µM	–	64.2 µM	> 100 µM	> 10 µM	–	76.3 µM	> 100 µM	–	–	–	–	–	–	–	–	–
CC(=O)NC(CC(C)C)C(=O)NC(Cc1ccccc1)C(=S)N1CCCC1 (stereo unspecified)	> 100 µM	> 100 µM	> 100 µM	> 100 µM	> 100 µM	> 100 µM	–	> 100 µM	–	> 100 µM	–	–	–	–	–	–	–	–	–
O=C1Nc2ccccc2Nc2ccncc21	> 100 µM	> 100 µM	> 100 µM	> 100 µM	> 100 µM	> 100 µM	–	> 100 µM	–	> 100 µM	–	–	–	–	–	–	–	–	–
Cc1cc(=O)[nH]c(NN2C(Cl)C(=O)C2c2cccc(Cl)c2)n1 (stereo unspecified)	> 100 µM	41.7 µM	62.8 µM	–	–	40.7 µM	–	–	–	35.8 µM	–	–	–	–	–	–	–	–	–
Clc1ccc(OCc2nn3c(CCc4nnc5sc(COc6ccc(Cl)cc6)nn45)nnc3s2)cc1	82.9 µM	> 100 µM	–	12.8 µM	> 100 µM	> 100 µM	> 100 µM	42.8 µM	> 100 µM	87.8 µM	–	–	–	–	–	–	–	–	–
O=C(NC(=S)NC(=O)c1cc(O)c(O)c(O)c1)c1cc(O)c(O)c(O)c1	44.8 µM	> 100 µM	–	44.3 µM	> 100 µM	–	6.06 µM	> 100 µM	–	40.4 µM	–	–	–	–	–	–	–	–	–
COc1cc(C2c3cc4c(cc3OC(N3CCNCC3)C2C)OCO4)cc(OC)c1OC (stereo unspecified)	> 47.9 µM	17.7 µM	–	4.29 µM	> 23.4 µM	14.4 µM	0.652 µM	52.1 µM	3.35 µM	> 40.6 µM	–	–	–	–	–	–	–	–	–
COc1cccc(-c2cc(=O)c3ccccc3[nH]2)c1	–	> 100 µM	> 100 µM	–	> 100 µM	> 100 µM	–	> 100 µM	–	> 100 µM	–	–	–	–	–	–	–	–	–
COc1ccc2c(OCc3nnc4ccc(-c5ccccc5)nn34)ccnc2c1	> 100 µM	> 100 µM	> 100 µM	> 100 µM	> 100 µM	> 100 µM	–	> 100 µM	> 100 µM	> 100 µM	> 100 µM	> 58.1 µM	> 100 µM	> 100 µM	> 100 µM	> 100 µM	> 100 µM	> 100 µM	> 91.1 µM
COc1cc(-c2ccccc2N)c2cccnc2c1OC	24.8 µM	22.5 µM	–	10.2 µM	21.9 µM	7.94 µM	20.2 µM	27.2 µM	11.9 µM	26.5 µM	–	–	–	–	–	–	–	–	–
Cc1ccccc1NC(=O)Cc1csc2[n+]1C(=O)/C(=C/c1ccc([N+](=O)[O-])cc1)S2	> 100 µM	–	63.1 µM	61.8 µM	> 100 µM	> 100 µM	> 100 µM	–	–	> 100 µM	–	–	–	–	–	–	–	–	–
